Common to all, as to test: NCI anticancer screen, dose series, 48 h
Test [1] has as its system CAKI-1 renal.
Test [2] deals with HCT-116 colon.
The subject of test [3] is MDA-MB-231 breast.
Test [4] concerns MDA-MB-435.
For test [5], the system named is MDA-N.
The test system of test [6] is MOLT-4 leukemia.
Test [7] concerns NCI-H226 lung.
Test [8] has as its system NCI-H23 lung.
Test [9] deals with NCI-H460 lung.
Test [10] concerns NCI-H522 lung.
Test [11] deals with NCI/ADR-RES ovarian.
Test [12] concerns OVCAR-8 ovarian.
Test [13] deals with SF-268 CNS.
In test [14] the test system is SK-MEL-5 melanoma.
The test system of test [15] is SR leukemia.
For test [16], the system named is SW-620 colon.
The subject of test [17] is TK-10 renal.

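The compound was tested at five concentrations on cells cultured in 96-well plates, with a 48-hour exposure period. TGI is the concentration that stops growth completely.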

The text below walks through data of PubChem BioAssay (NCI).

In the case of `O=c1[nH]/c(=C/c2ccc(OCc3ccccc3)cn2)c(=O)[nH]/c1=C/c1ccc(F)cc1`, the TGI in test [1] is greater than 100 µM; in test [2] it was greater than 100 µM; in test [3], greater than 51.3 µM; in test [4], 0.687 µM; in test [5], 0.259 µM; in test [6], greater than 34.4 µM. Also, the TGI in test [7] was greater than 44.3 µM; in test [8], greater than 50.4 µM; in [9], greater than 34.2 µM; in test [10], 9.06 µM; in [11], greater than 37 µM; in [12] it was greater than 47 µM. In addition, the TGI in test [13] is greater than 40.7 µM; in test [14], greater than 100 µM; in [15], 1.29 µM; in test [16], greater than 44.6 µM; in [17], greater than 39.7 µM.
With `CCO/C=N\c1c(C#N)c(-c2ccc(Cl)cc2)cn1-c1ccc(C)cc1`, the TGI in test [1], in test [2], in test [3], in test [4], in test [5] and in test [7] was greater than 100 µM throughout. The TGI in test [8], in test [9], in test [10], in test [11], in [12] and in test [13] was greater than 100 µM in each case. For the same compound, the TGI in [14], in test [15], in [16] and in test [17] was greater than 100 µM throughout.
In the case of `CC(O)c1cc2c(s1)C(=O)c1ccsc1C2=O` (centres undefined), the TGI in test [1] was 1.96 µM; in test [2] it was 2.72 µM; in test [3], 0.624 µM; in test [4], 0.026 µM; in test [5], 0.0275 µM; in test [6] it was 0.594 µM. The TGI in test [7] came to 1.32 µM; in test [8], 0.0304 µM; in [10], 0.381 µM; in test [11], 0.743 µM; in test [12] it was 1.01 µM; in [13] it was 0.679 µM. Further, the TGI is 0.0198 µM in test [14], 0.392 µM in test [15], 0.511 µM in test [16] and 1.32 µM in test [17].
For `CCOC(=O)CCC(NC(=O)c1ccc(Oc2nc3ccccc3nc2-c2ccccc2)cc1)C(=O)OCC` (centres undefined), the TGI in test [1] is greater than 66.4 µM; in [2] it was greater than 49.3 µM; in test [3] it was 65.9 µM; in test [4], greater than 100 µM; in [5], greater than 85.4 µM; in test [6] it was greater than 100 µM. Further, the TGI in [7] was 33 µM; in test [8], greater than 61.3 µM; in [9], greater than 100 µM; in test [10], 40.2 µM; in test [11], 27.7 µM; in [12], 16 µM. Moreover, the TGI was 28.2 µM in test [13]; greater than 100 µM in [14]; greater than 100 µM in test [15]; greater than 100 µM in test [16]; greater than 56.8 µM in test [17].
`O=C1CCCCCCCCCCC1CCCCCBr` (centres undefined): the TGI was 95.1 µM in test [1]; 45.9 µM in [2]; 45.1 µM in test [3]; 97.7 µM in [4]; greater than 100 µM in [5]; 33.6 µM in [6]. In addition, the TGI in test [7] was 40 µM; in test [8], 74.8 µM; in test [9] it was greater than 100 µM; in test [10] it was 44.4 µM; in test [11] it was 64.3 µM; in test [12], greater than 100 µM. Also, the TGI in test [13] was greater than 100 µM; in test [14], 31.2 µM; in test [15] it was 44.1 µM; in test [16], greater than 100 µM; in test [17], greater than 100 µM.
Regarding `CO[C@@H]1C[C@H]2[C@@H]3CC[C@H]([C@@H](C)CO)[C@@]3(C)CC[C@@H]2[C@@]2(C)CC[C@H]3C[C@]312`, the TGI in test [1] is greater than 100 µM; in test [2] it was greater than 100 µM; in [3], 80.7 µM; in test [4], greater than 100 µM; in test [5] it was greater than 100 µM; in test [6], greater than 100 µM. Also, the TGI is 59.9 µM in test [7]; greater than 100 µM in [8]; 43.1 µM in [9]; 71.8 µM in [10]; 93 µM in test [11]; greater than 100 µM in test [12]. The TGI is greater than 100 µM in test [13]; 31.1 µM in test [14]; greater than 100 µM in test [15]; greater than 100 µM in test [16]; greater than 100 µM in test [17].
For the compound `NC(=O)c1cc2ccc(O)cc2o/c1=N/NC(=O)c1ccccc1`, the TGI in [1], in test [2], in [3], in test [4], in test [5] and in test [6] was greater than 100 µM throughout. Further, the TGI in [7], in test [8], in test [9], in test [10], in [11] and in test [12] was greater than 100 µM each time. Moreover, the TGI in test [13], in test [14], in test [15], in test [16] and in test [17] was greater than 100 µM each time.
In the case of `COc1ccc(/C=C2\CN(C)C/C(=C\c3ccc(OC)cc3)C2=O)cc1`, the TGI in test [1], in [2], in test [3], in test [4], in test [5] and in test [6] was greater than 100 µM each time. For the same compound, the TGI in test [7], in test [8], in test [9], in test [10], in [11] and in test [13] was greater than 100 µM in each case. The TGI in test [14], in test [15], in test [16] and in test [17] was greater than 100 µM in each case.
`CC(C)(Oc1ccccc1)C(=O)Sc1c(-c2ccccc2)c(=O)n(-c2ccccc2)c(=S)n1-c1ccccc1`: the TGI in test [1] was greater than 100 µM; in [2], greater than 100 µM; in test [3], 73.8 µM; in [4], 52.4 µM; in test [5], greater than 100 µM; in test [6] it was greater than 100 µM. For the same compound, the TGI in test [7] was greater than 100 µM; in [8] it was greater than 100 µM; in [9], 67.3 µM; in [10] it was 64.2 µM; in [11] it was greater than 100 µM; in test [12], 44.1 µM. For the same compound, the TGI in [13] is 80.2 µM; in [15] it was 57.8 µM; in test [16], greater than 100 µM; in [17], greater than 100 µM.
